Data as given in patent US20220339110A1, “FAST CONSOLIDATING COMPOUNDS” (Universität Innsbruck, priority 2019, published 2022).
Each block holds one compound with its values, some of them ahead of it.

Key:
Assay type in all cases: physicochemical
[1] = Moulding process: time to stable tablets (consolidation/solidification time) and liquid amount after wetting the powder; conditions: for consolidation/solidification time (in words): wetted with water
Experimental: α-Lactose anhydrate was transferred into wells of a moulding form and wetted with pure water and water/alcohol mixtures, as shown in FIG. 2. Pure water and aqueous EtOH solutions, 25% (v/v) and 50% EtOH (v/v), ratio by volume, were used as solvents. These experiments were performed to measure the time needed for the formation of stable tablets, to determine the optimal amount of solvent, and to determine the optimal water:alcohol ratio in water/alcohol mixtures.
The solidification time (time until the tablets show sufficient hardness for handling) after addition of the solvent was determined using pure water and an aqueous glucose solution. It was observed that the solidification time of anhydrous glucose is much shorter when glucose solutions are applied instead of pure water. Glucose anhydrate solidifies after 10-15 min when water is used but hardens within 2-6 minutes after the application of glucose solutions. The amount of glucose in the solution is less critical for the solidification time, a concentration of 25 wt % is sufficient.
The moulding form tests were carried out with two different solvents: a) water and b) 50% EtOH (v/v) solution.
In a first experiment, tablets with amorphous Ca-L-Lactate (L-CaLac) using pure water were produced.
Wetting partly anhydrous MgSO4 (7 wt % water content) with pure water results in solid tablets. After 5 minutes the tablets can be unbaged from the moulding form. The wettability is not as good as for the α-lactose powders. About 50-60 μl water were added per 100 mg powder. By using a saturated aqueous solution of MgSO4 the hardening time could be halved (2-3 minutes).

[2] = Drug load capacity test of moulded tablets with glass beads (Spheriglass 2429); conditions: for Consolidation time (in words) / Consolidation time: loaded with glass beads; for time to solid/stable tablets (in words): mixture with Spheriglass 2429 (50 wt % where stated), water
From the text: As model substance for the drug load capacity test, Spheriglass 2429 (glass beads, Potters Europe) was used, because there are no interactions between the glass beads and lactose to exclude other effects. Spheriglass 2429 has a particle size distribution of 53-106 μm. It was mixed with refluxed and sieved Spherolac 100 anhydrate (Spherolac 100 AH) (<250 μm) in a ratio of 30 and 60 wt %. […] The higher the amount of Spheriglass 2429 the less binder solution is needed, because of the decreasing amounts of water binding excipients.
A mixture of 50 wt % anhydrous glucose and 50 wt % Spheriglass 2429 was wetted with a 25 wt % glucose solution and pure water. The aim of this experiment was to investigate if the consolidation time is slowed down by loading a slower solidifying hydrate (in comparison to α-Lactose anhydrate) with a non-matrix-forming substance. […] The advantages of the use of glucose are rather seen as additive to other fast consolidating excipients to improve or modify the consolidation process, its rate, and the properties of the product.

[3] = Permanent stability of Na2SO4 tablets with binder in the wetting liquid
Experimental: Attempts were undertaken to ensure the permanent stability of the Na2SO4 (decahydrate) tablets by adding binder polymers to the wetting liquid. Amounts of 5 wt % and 7.5 wt % aqueous PVA 388 solutions were tested. […] The tests show the possibility of a new approach: rapid solidification by hydrate formation and permanent stability through additional binders.

[4] = Tablet hardness, three-point-break tester; conditions: 200 mg
Experimental: The tablet hardness was measured with a three-point-break tester by Charles Ischi AG (HC 6.2 50 N).

[5] = Mercury intrusion porosimetry of lactose tablets
Experimental: The porosity, ratio between the sample void volumes and its external volume, of a tablet should be high if a fast disintegration is desired (e.g. for sublingual tablets). Porosity was measured using mercury porosimetry. For a complete mercury intrusion porosimetry (MIP) measurement, two different porosimeter types are needed—a low-pressure porosimeter (LP-MIP) and a high-pressure porosimeter (HP-MIP). As the LP-MIP, Pascal 140 (Thermo Fisher Scientific, I-Milano) was used and the Porosimeter 2000 (Carlo Erba, I-Milano) as the HP-MIP. Pure Spherolac 100 was used for the experiments.

[6] = Disintegration time of lactose tablets
From the text: Mercury porosimetry of the 3D-powder printed tablet indicated a porosity of 63.8% and an average pore radius of 48 Micron. […] Also the tablets produced by the molding process show porosities around 50% whereas those of the pressed tablets are much smaller. The high porosity guarantees a fast intrusion of fluids into the tablet and is thus an important prerequisite of a fast disintegration.

[7] = Mercury intrusion porosimetry of lactose tablets; conditions: 3D-powder printed tablet; calculated value
[8] = 5 wt % PVA 388 in 50% EtOH (v/v)
[9] = 7.5 wt % PVA 388 in 50% EtOH (v/v)
[10] = 10 wt % PVA 388 in 50% EtOH (v/v)
[11] = production method: compaction 10 kN
[12] = production method: compaction 30 kN
[13] = production method: 3D-powder printing
[14] = production method: moulding process
[15] = 50 wt % Spheriglass 2429, 25 wt % glucose solution and pure water

SMILES: O.O=S(=O)([O-])[O-].O=S(=O)([O-])[O-].[Ca+2].[Ca+2] [Calcium sulphate hemihydrate, reference compound]
Consolidation time ([1]; solution: water): ca. 35 min

SMILES: O=S(=O)([O-])[O-].[Na+].[Na+] [Na2SO4 anhydrate]
Consolidation time (in words) ([1]; 50% EtOH (v/v) solution): within one minute
Consolidation time (in words) ([1]; solution: water): few seconds
consolidation/solidification time (in words) [1]: within a few seconds
Consolidation time (in words) ([2]; solvent H2O): few seconds
time to solid/stable tablets (in words) [2]: within a few seconds
mechanical stability of tablets (in words) ([3]; 7.5 wt % aqueous PVA 388 solution, after drying two and a half days at 22° C. or 40° C.): mechanically stable tablets
mechanical stability of tablets the next day (in words) ([3]; wetted with 5 wt % aqueous PVA 388 solution): still could be easily crushed

SMILES: O=S(=O)([O-])[O-].[Mg+2] [MgSO4 anhydrate]
Consolidation time (in words) ([1]; solution: water): few seconds
consolidation/solidification time (in words) [1]: within a few seconds
Consolidation time (in words) ([2]; solvent H2O): few seconds
time to solid/stable tablets (in words) [2]: after a few seconds

Consolidation time ([1]; solution: water): 1 to 2 min
consolidation/solidification time (in words) [1]: within one minute
solidification time ([2]; 50 wt % Spheriglass 2429, 50% EtOH (v/v) binder solution): ca. 45 min
Consolidation time ([2]; solvent H2O): 1 to 2 min
SMILES: C[C@H](O)C(=O)[O-].C[C@H](O)C(=O)[O-].[Ca+2] [Ca-Lactate anhydrate, anhydrous Ca-Lactate]

time to stable tablets ([1]; pure water, with seed crystals of the dodecahydrate (about 2%)): 1 to 4 min
Consolidation time ([1]; solution: water): 1 to 4 min
solidification time ([1]; without seed crystals): about 4 min
time to stable tablets ([2]; 50% wt Spheriglass 2429, wetting with water): ≥ 10 min
Consolidation time ([2]; solvent H2O): >10 min
SMILES: O=C([O-])CC(O)(CC(=O)[O-])C(=O)[O-].O=C([O-])CC(O)(CC(=O)[O-])C(=O)[O-].[Mg+2].[Mg+2].[Mg+2] [Mg Citrate anhydrate, anhydrous Mg Citrate]

SMILES: O.OC[C@H]1O[C@@H](O[C@H]2[C@H](O)[C@@H](O)[C@@H](O)O[C@@H]2CO)[C@H](O)[C@@H](O)[C@H]1O [Spherolac 100 MH, α-Lactose monohydrate]
Average hardness of tablet [4, 8]: 5.85 N
Average hardness of tablet [4, 9]: 8.1 N
Average hardness of tablet [4, 10]: 13.1 N
Average Pore Radius [5, 11]: 0.6 μm
Porosity [5, 11]: 12%
Average Pore Radius [5, 12]: 0.2 μm
Porosity [5, 12]: 5%
disintegration time (in words) ([6]; tablets produced at compaction pressure of 30 kN): several minutes

SMILES: OC[C@H]1O[C@@H](O[C@H]2[C@H](O)[C@@H](O)[C@@H](O)O[C@@H]2CO)[C@H](O)[C@@H](O)[C@H]1O [Stable α-Lactose anhydrate]
Consolidation time ([1]; solution: water): 0.083 to 0.167 min
time to stable tablets ([1]; water/alcohol mixtures (25% and 50% EtOH v/v)): more than 10 seconds
time to stable tablets ([1]; wetting with pure water): 0.083 to 0.167 min
Consolidation time (in words) ([2]; solvent H2O): few seconds
Consolidation time (in words) ([2]; solvent H2O/EtOH 1:1): few seconds

SMILES: OC[C@H]1O[C@@H](O[C@H]2[C@H](O)[C@@H](O)[C@@H](O)O[C@@H]2CO)[C@H](O)[C@@H](O)[C@H]1O [Spherolac 100 AH]
Average hardness of tablet [4, 8]: 10.45 N
Average hardness of tablet ([4]; 5 wt % aq. PVA 388): 8.65 N
Average hardness of tablet [4, 9]: 16.75 N
Average hardness of tablet ([4]; 7.5 wt % aq. PVA 388): 12.2 N
Average hardness of tablet [4, 10]: 20.2 N
Average hardness of tablet ([4]; 10 wt % aq. PVA 388): 14.75 N
Average hardness of tablet ([4]; binder solution: water): 9.4 N
time to stable tablets after wetting (in words) ([2]; mixed with Spheriglass 2429 at 30 and 60 wt %): within a few seconds
Average Pore Radius ([5]; 3D-powder printed tablet): 48 Micron
porosity (mercury porosimetry) ([5]; 3D-powder printed tablet): 63.8%
Average Pore Radius [5, 13]: 48 μm
Porosity [5, 13]: 63.8%
Average Pore Radius [5, 14]: 2.4 μm
Porosity [5, 14]: 49%
Porosity ([5]; tablets produced by the molding process): around 50%
disintegration time (in words) ([6]; printed tablets): few seconds
calculated porosity [7]: 71.3%

Consolidation time (in words) ([1]; 50% EtOH (v/v) solution): about four to five minutes
Consolidation time (in words) ([1]; solution: water): few seconds
consolidation/solidification time (in words) [1]: within a few seconds
Consolidation time ([2]; solvent H2O): 2 min
Consolidation time ([2]; solvent H2O/EtOH 1:1): 4 min
time to solid/stable tablets (in words) [2]: Two minutes
time after which tablets could be removed ([2]; with Spheriglass, 50% EtOH (v/v) solution): 2 to 4 min
SMILES: OC[C@H]1O[C@H](OC[C@H]2O[C@H](O[C@]3(CO)O[C@H](CO)[C@@H](O)[C@@H]3O)[C@H](O)[C@@H](O)[C@@H]2O)[C@H](O)[C@@H](O)[C@H]1O [Raffinose anhydrate]

solidification time ([1]; glucose solutions applied): 2 to 6 min
Consolidation time ([1]; solution: aqueous glucose solution (25-50 wt %)): 2 to 6 min
Consolidation time ([1]; solution: water): ca. 10 min
solidification time ([1]; water): 10 to 15 min
state of tablets after 10 minutes [2, 15]: still rather soft
time after which tablets could be removed (in words) [2, 15]: After four minutes
Consolidation time ([2]; solvent H2O): >10 min
SMILES: OC[C@H]1OC(O)[C@H](O)[C@@H](O)[C@@H]1O (some centres unmarked) [Glucose anhydrate]
